Data as given in paper PMC6277767, “Broad and Region-Specific Impacts of the Synthetic Cannabinoid CP 55,940 in Adolescent and Adult Female Mouse Brains” (Frontiers in Molecular Neuroscience, 2018).

Test system: CD1 female mouse brain lipidome
Assay: Brain-region lipid levels (HPLC/MS/MS lipidomics) 2 h after single i.p. 3 mg/kg CP 55,940 vs vehicle
Type: in vivo
Details: thalamus
Experimental: The Bloomington Institutional Animal Care and Use Committee of Indiana University reviewed and approved the animal procedures. Female mice from the CD1 strain were utilized to match our study examining THC’s effects on the brain lipidome ([Leishman et al., 2018]). Mice were given a single i.p. injection of either 3 mg/kg CP or 1:1:18 cremophor:ethanol:saline vehicle (please refer to the section “3 mg/kg CP Is Relevant for Synthetic Cannabinoid Abuse and Has Stronger Effects on the Female Mouse Brain Lipidome During Adolescence” for a justification of dose and use of female mice). Three different age groups were given injections: PND 35 and PND 50 adolescents, and adult mice (PND 113). At least eight mice in each age group received CP and at least eight received vehicle. Matching the THC study time course ([Leishman et al., 2018]), mice were sacrificed via rapid decapitation 2 h after injection. Brains were immediately removed and flash-frozen in liquid nitrogen, and then stored at -80°C until dissections were performed. Brains were dissected on an ice-cold dissection plate into the following regions: STR, HIPP, CER, THAL, CTX, HYP, MID, and STEM. These abbreviations for these brain areas will be used exclusively when discussing the results generated by these specific dissections. Each dissected area was immediately placed in liquid nitrogen and then stored at -80°C until used for lipid extraction.
Tissue extracts were performed as previously described ([Bradshaw et al., 2006]; [Stuart et al., 2013]; [Raboune et al., 2014]; [Leishman et al., 2016a],[b], [2017], [2018]). First, samples were shock frozen in liquid nitrogen, weighed, and transferred to a centrifuge tube. The mass of the largest sample was multiplied by 50 to determine how many milliliters of HPLC-grade methanol (Fisher, Fair Lawn, NJ, United States) to add. Then, samples were spiked with 500 pmol deuterium-labeled NAGly (d8NAGly; Cayman Chemical, Ann Arbor, MI, United States). Samples were placed on ice in darkness for 2 h then individually homogenized and centrifuged at 19,000 × g for 20 min at 20°C. Supernatants were diluted with HPLC water (purified in house) to make a solution of 75% water, 25% supernatant. Lipids were partially purified on C18 solid phase extraction columns (Agilent, Palo Alto, CA, United States). A series of four elutions with 1.5 mL of 60%, 75%, 85%, and 100% methanol were collected ([Stuart et al., 2013]; [Leishman et al., 2016a],[b], [2018]).
As previously described ([Bradshaw et al., 2006]; [Tan et al., 2006]; [Smoum et al., 2010]; [Stuart et al., 2013]; [Tortoriello et al., 2013]; [Raboune et al., 2014]; [Leishman et al., 2016a],[b], [2017], [2018]), samples were analyzed using an Applied Biosystems API 3000 triple quadrupole mass spectrometer with electrospray ionization (Foster City, CA, United States). Using an Agilent XDB-C18 reversed phase analytical column and optimized mobile phase gradients, 20 μL from each elution were chromatographed. Two Shimadzu 10ADvp pumps (Columbia, MD, United States) provided the pressure for gradient elution. Mobile phase A: 20% methanol, 80% water (v/v) and 1 mM ammonium acetate (Sigma, St. Louis, MO, United States). Mobile phase B: 100% methanol, 1 mM ammonium acetate. Every method run began with 0% mobile phase B, reached 100% mobile phase B flowing at 0.2 mL/min, and gradually returned to 0% mobile phase B.
This screening library will be referred to as the lipidome when discussing data from this study. HPLC/MS/MS data were analyzed using Analyst software (Applied Biosystems) ([Bradshaw et al., 2006]; [Tan et al., 2006]; [Stuart et al., 2013]; [Tortoriello et al., 2013]; [Raboune et al., 2014]; [Leishman et al., 2016a],[b], [2017], [2018]). Chromatograms (Supplementary Figure 3) were generated by determining the retention time of analytes from the analytical column with a [M-1] or [M+1] parent peak and a fragmentation peak corresponding to the programmed values. […]

[1] = WT adult female mice, 3mg/kg CP 55,940

Structure (SMILES): CCCCCCC(C)(C)c1ccc([C@@H]2C[C@H](O)CC[C@H]2CCCO)c(O)c1 [CP 55,940]
- N-docosahexaenoyl ethanolamine level, Mean [1]: 2.99E-11
- N-docosahexaenoyl glycine level, Mean [1]: 1.3E-13
- N-docosahexaenoyl phenylalanine level, Mean [1]: 4.66E-14
- N-linoleoyl GABA level, Mean [1]: 7.91E-12
- N-linoleoyl alanine level, Mean [1]: 5.44E-13
- N-linoleoyl ethanolamine level, Mean [1]: 1.72E-11
- N-linoleoyl glycine level, Mean [1]: 9.08E-14
- N-linoleoyl serine level, Mean [1]: 4.53E-11
- N-oleoyl GABA level, Mean [1]: 1.73E-11
- N-oleoyl alanine level, Mean [1]: 2.34E-12
- N-oleoyl ethanolamine level, Mean [1]: 1.6E-10
- N-oleoyl glycine level, Mean [1]: 4.19E-13
- N-oleoyl leucine level, Mean [1]: 7.81E-13
- N-oleoyl methionine level, Mean [1]: 5.74E-13
- N-oleoyl phenylalanine level, Mean [1]: 4.73E-13
- N-oleoyl serine level, Mean [1]: 2E-10
- N-palmitoyl GABA level, Mean [1]: 2.74E-11
- N-palmitoyl alanine level, Mean [1]: 2.22E-12
- N-palmitoyl ethanolamine level, Mean [1]: 6.49E-11
- N-palmitoyl glycine level, Mean [1]: 2.5E-12
- N-palmitoyl leucine level, Mean [1]: 2.46E-12
- N-palmitoyl methionine level, Mean [1]: 3.82E-12
- N-palmitoyl phenylalanine level, Mean [1]: 4.13E-13
- N-palmitoyl serine level, Mean [1]: 1.13E-11
- N-palmitoyl tyrosine level, Mean [1]: 3.42E-13
- N-palmitoyl valine level, Mean [1]: 1.9E-13
- N-stearoyl GABA level, Mean [1]: 1.7E-11
- N-stearoyl alanine level, Mean [1]: 2.97E-12
- N-stearoyl ethanolamine level, Mean [1]: 1.06E-11
- N-stearoyl glycine level, Mean [1]: 1.83E-12
- N-stearoyl leucine level, Mean [1]: 1.05E-12
- N-stearoyl methionine level, Mean [1]: 4.98E-13
- N-stearoyl phenylalanine level, Mean [1]: 2.37E-13
- N-stearoyl serine level, Mean [1]: 2.33E-11
- N-stearoyl tyrosine level, Mean [1]: 8.82E-14
- Oleic acid level, Mean [1]: 4.55E-10
- PGE2 level, Mean [1]: 1.93E-10
- PhosphoLEA level, Mean [1]: 3.87E-12
- 2-arachidonoyl glycerol: Direction (relative to Veh) (adult, 3 mg/kg CP 55,940): ↓
- 2-arachidonoyl glycerol: Magnitude (x Veh level) (adult, 3 mg/kg CP 55,940): 0.81 x Veh level
- 2-linoleoyl glycerol: Direction (relative to Veh) (adult, 3 mg/kg CP 55,940): ↓
- 2-linoleoyl glycerol: Magnitude (x Veh level) (adult, 3 mg/kg CP 55,940): 0.77 x Veh level
- 6-ketoPGF1α: Direction (relative to Veh) (adult, 3 mg/kg CP 55,940): ↑
- 6-ketoPGF1α: Magnitude (x Veh level) (adult, 3 mg/kg CP 55,940): 1.23 x Veh level
- Arachidonic acid: Direction (relative to Veh) (adult, 3 mg/kg CP 55,940): ↓
- Arachidonic acid: Magnitude (x Veh level) (adult, 3 mg/kg CP 55,940): 0.83 x Veh level
- N-arachidonoyl GABA: Direction (relative to Veh) (adult, 3 mg/kg CP 55,940): ↓
- N-arachidonoyl GABA: Magnitude (x Veh level) (adult, 3 mg/kg CP 55,940): 0.80 x Veh level
- N-arachidonoyl alanine: Direction (relative to Veh) (adult, 3 mg/kg CP 55,940): ↓
- N-arachidonoyl alanine: Magnitude (x Veh level) (adult, 3 mg/kg CP 55,940): 0.63 x Veh level
- N-arachidonoyl ethanolamine: Direction (relative to Veh) (adult, 3 mg/kg CP 55,940): ↓
- N-arachidonoyl ethanolamine: Magnitude (x Veh level) (adult, 3 mg/kg CP 55,940): 0.81 x Veh level
- N-arachidonoyl glycine: Direction (relative to Veh) (adult, 3 mg/kg CP 55,940): ↓
- N-arachidonoyl glycine: Magnitude (x Veh level) (adult, 3 mg/kg CP 55,940): 0.63 x Veh level
- N-oleoyl ethanolamine: Direction (relative to Veh) (adult, 3 mg/kg CP 55,940): ↓
- N-oleoyl ethanolamine: Magnitude (x Veh level) (adult, 3 mg/kg CP 55,940): 0.79 x Veh level
- N-palmitoyl GABA: Direction (relative to Veh) (adult, 3 mg/kg CP 55,940): ↑
- N-palmitoyl GABA: Magnitude (x Veh level) (adult, 3 mg/kg CP 55,940): 1.13 x Veh level
- N-palmitoyl ethanolamine: Direction (relative to Veh) (adult, 3 mg/kg CP 55,940): ↓
- N-palmitoyl ethanolamine: Magnitude (x Veh level) (adult, 3 mg/kg CP 55,940): 0.86 x Veh level
- N-palmitoyl leucine: Direction (relative to Veh) (adult, 3 mg/kg CP 55,940): ↑
- N-palmitoyl leucine: Magnitude (x Veh level) (adult, 3 mg/kg CP 55,940): 1.36 x Veh level
- N-palmitoyl methionine: Direction (relative to Veh) (adult, 3 mg/kg CP 55,940): ↑
- N-palmitoyl methionine: Magnitude (x Veh level) (adult, 3 mg/kg CP 55,940): 1.25 x Veh level
- N-palmitoyl valine: Direction (relative to Veh) (adult, 3 mg/kg CP 55,940): ↑
- N-palmitoyl valine: Magnitude (x Veh level) (adult, 3 mg/kg CP 55,940): 1.95 x Veh level
- Oleic acid: Direction (relative to Veh) (adult, 3 mg/kg CP 55,940): ↓
- Oleic acid: Magnitude (x Veh level) (adult, 3 mg/kg CP 55,940): 0.78 x Veh level
- 2-linoleoyl glycerol Direction (relative to Veh) (PND 35, 3 mg/kg CP 55,940): ↓
- 2-linoleoyl glycerol Magnitude (x Veh level) (PND 35, 3 mg/kg CP 55,940): 0.79 x Veh level
- 6-ketoPGF1α Direction (relative to Veh) (PND 35, 3 mg/kg CP 55,940): ↓
- 6-ketoPGF1α Magnitude (x Veh level) (PND 35, 3 mg/kg CP 55,940): 0.77 x Veh level
- N-arachidonoyl GABA Direction (relative to Veh) (PND 35, 3 mg/kg CP 55,940): ↓
- N-arachidonoyl GABA Magnitude (x Veh level) (PND 35, 3 mg/kg CP 55,940): 0.72 x Veh level
- N-arachidonoyl alanine Magnitude (x Veh level) (PND 35, 3 mg/kg CP 55,940): 0.82 x Veh level
- N-arachidonoyl alanine, Direction (relative to Veh) (PND 35, 3 mg/kg CP 55,940): ↓
- N-arachidonoyl ethanolamine, Direction (relative to Veh) (PND 35, 3 mg/kg CP 55,940): ↑
- N-arachidonoyl ethanolamine, Magnitude (x Veh level) (PND 35, 3 mg/kg CP 55,940): 1.21 x Veh level
- N-arachidonoyl glycine Direction (relative to Veh) (PND 35, 3 mg/kg CP 55,940): ↓
- N-arachidonoyl glycine Magnitude (x Veh level) (PND 35, 3 mg/kg CP 55,940): 0.86 x Veh level
- N-arachidonoyl phenylalanine, Direction (relative to Veh) (PND 35, 3 mg/kg CP 55,940): ↑
- N-arachidonoyl phenylalanine, Magnitude (x Veh level) (PND 35, 3 mg/kg CP 55,940): 1.20 x Veh level
- N-arachidonoyl serine Direction (relative to Veh) (PND 35, 3 mg/kg CP 55,940): ↓
- N-arachidonoyl serine Magnitude (x Veh level) (PND 35, 3 mg/kg CP 55,940): 0.81 x Veh level
- N-arachidonoyl taurine Direction (relative to Veh) (PND 35, 3 mg/kg CP 55,940): ↓
- N-arachidonoyl taurine Magnitude (x Veh level) (PND 35, 3 mg/kg CP 55,940): 0.87 x Veh level
- N-docosahexaenoyl GABA Direction (relative to Veh) (PND 35, 3 mg/kg CP 55,940): ↓
- N-docosahexaenoyl GABA Magnitude (x Veh level) (PND 35, 3 mg/kg CP 55,940): 0.71 x Veh level
- N-docosahexaenoyl alanine Direction (relative to Veh) (PND 35, 3 mg/kg CP 55,940): ↓
- N-docosahexaenoyl alanine Magnitude (x Veh level) (PND 35, 3 mg/kg CP 55,940): 0.69 x Veh level
- N-docosahexaenoyl glycine Direction (relative to Veh) (PND 35, 3 mg/kg CP 55,940): ↓
- N-docosahexaenoyl glycine Magnitude (x Veh level) (PND 35, 3 mg/kg CP 55,940): 0.85 x Veh level
- N-docosahexaenoyl leucine Direction (relative to Veh) (PND 35, 3 mg/kg CP 55,940): ↑
- N-docosahexaenoyl leucine Magnitude (x Veh level) (PND 35, 3 mg/kg CP 55,940): 1.78 x Veh level
- N-docosahexaenoyl phenylalanine Direction (relative to Veh) (PND 35, 3 mg/kg CP 55,940): ↑
- N-docosahexaenoyl phenylalanine Magnitude (x Veh level) (PND 35, 3 mg/kg CP 55,940): 1.25 x Veh level
- N-linoleoyl ethanolamine, Direction (relative to Veh) (PND 35, 3 mg/kg CP 55,940): ↑
- N-linoleoyl ethanolamine, Magnitude (x Veh level) (PND 35, 3 mg/kg CP 55,940): 1.29 x Veh level
- N-oleoyl GABA Magnitude (x Veh level) (PND 35, 3 mg/kg CP 55,940): 0.81 x Veh level
- N-oleoyl GABA direction (relative to Veh) (PND 35, 3 mg/kg CP 55,940): ↓
- N-oleoyl alanine Magnitude (x Veh level) (PND 35, 3 mg/kg CP 55,940): 0.84 x Veh level
- N-oleoyl alanine direction (relative to Veh) (PND 35, 3 mg/kg CP 55,940): ↓
